Experimental findings from the METLIN SMRT retention time set (Domingo-Almenara et al. 2019) are described below.

The data set can be described thus: gradient 5% acetonitrile 3 min, to 50% in 2 min, to 85% in 15 min, held 3 min, 100 µL/min. Particulars: column: Zorbax Extend-C18 2.1 x 50 mm; eluents: water / acetonitrile, 0.1% formic acid. A digest of the protocol:
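Pure standards were analyzed in mixtures of ~100 molecules using HPLC coupled to a quadrupole time-of-flight mass spectrometer, in both positive and negative ionization mode. Separation used a Zorbax Extend-C18 column (2.1 × 50 mm, 1.8 μm) at 100 μL/min, with water and acetonitrile each containing 0.1% formic acid. Dead and dwell volumes were 40 μL and 900 μL, and data were collected over 3 months. Retention time was read from computationally picked adduct peaks, each inspected manually.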
On to `CCOCC(=O)Nc1c(C)nc2ccc(Cl)cn2c1=O`, for which the RP-LC retention time was 583 s.
In turn, `CCCn1cc(CCNC(=O)C2CCCCC2)c2cccnc21` returned an RP-LC retention time of 772 s.
As for `Cn1cc(S(=O)(=O)N2CCC(C(=O)NCc3ccccc3Cl)CC2)cc1C(=O)N1CCCC1`, the figure is 752 s; as for `CN1CCN(C(=O)c2noc3c2CC(C(C)(C)C)CC3)CC1` (centres undefined), 582 s.
In turn, `COCCN1C(=O)CCc2cc(NS(=O)(=O)c3ccc(OC)c(Cl)c3)ccc21` gave an RP-LC retention time of 794 s.
The compound `Cn1nccc1-c1cccc(-c2noc(-c3ccccc3F)n2)c1` came in with an RP-LC retention time of 1070 s.
The compound `Cc1nc(C2CN(S(=O)(=O)c3cc(F)ccc3F)CC23CCOCC3)no1` (centres undefined) yielded an RP-LC retention time of 834 s.
`COCCCNC(=O)c1ccc(-c2nc(CN3CCc4ccccc43)c(C)o2)cc1`: the RP-LC retention time stood at 951 s.
`CNC(=O)CSc1nnc(N2CCN(C(=O)c3cc(=O)c4ccccc4o3)CC2)s1` gave an RP-LC retention time of 599 s.
`CN(C)C(=O)c1csc(S(=O)(=O)N2CCC(C(=O)NC3CCCCCC3)CC2)c1` displayed an RP-LC retention time of 783 s.
`CCN(CCCNC(=O)C1CCN(S(=O)(=O)N2CCOCC2)CC1)c1cccc(C)c1` showed an RP-LC retention time of 623 s.
As for `Cc1cccc(Nc2nc(C)c(C(=O)N3CCN(c4ccccc4)CC3)s2)n1`, the RP-LC retention time is 884 s.
Under `COc1cccc(-n2cc(C(=O)OCC(=O)OC(C)C)c3ccccc3c2=O)c1` stands 1060 s; under `COc1ccccc1NC(=O)c1c(NC(=O)C(C)C)sc2c1CCC2`, 815 s.
In turn, `CCn1cc(C(=O)Nc2ccccc2C)c(=O)c2ccc(C)nc21` displayed an RP-LC retention time of 1090 s.
The compound `Cc1cccc(NC(=O)Cn2ncc3c(c2=O)N(C2CC2)C(=O)CS3)c1C` showed an RP-LC retention time of 714 s.
`CCc1ccc2c(c1)cc(S(=O)(=O)c1ccccc1)c(=O)n2CC(=O)NC1CCCC1` had an RP-LC retention time of 942 s.
Turning to `O=S(=O)(c1ccc(F)cc1F)N1CCCC(Cn2c(C3CC3)nc3cccnc32)C1` (centres undefined), the RP-LC retention time was 766 s.
`CCN1C(=O)c2cccnc2Sc2cc(NC(=O)c3c(F)cccc3Cl)ccc21` registered an RP-LC retention time of 850 s.
Under `CCCNC(=O)C1CCN(C(=O)CCc2c(C)[nH]c(C(=O)OCC)c2C)CC1` stands 679 s; under `Cc1sc2ccn(CC(C)C)c(=O)c2c1C(=O)N1CCN(c2ccccn2)CC1`, 618 s; under `CC(C)(C)c1ccc(-c2noc(Cn3c(=O)n(-c4cccc(F)c4)c(=O)c4sccc43)n2)cc1`, 1220 s.
As for `CCc1nc2cc(N3CCCC(C(=O)NCCN(C)C)C3)cnc2nc1CC` (centres undefined), the figure is 604 s; as for `COc1ccc(S(=O)(=O)N2CCN(c3cc(C)nc(Nc4ccc(C)cc4)n3)CC2)cc1Cl`, 801 s.
As for `O=C(Nc1ccc(F)c(F)c1)C1CCN(C(=O)c2ncn3c2COC(c2ccccc2)C3)CC1` (centres undefined), the figure is 819 s; as for `CCOc1ccc2cccc(NC(=O)Cc3cccc(OC)c3)c2n1`, 1120 s; as for `CCNC(=O)c1c(C)c(-c2ccccc2)n(C)c1C`, 1010 s.
In turn, `CN1CCN(C(=O)Cn2cccc2-c2nc(-c3ccccc3)cs2)CC1` yielded an RP-LC retention time of 664 s.
`CC1=C(c2ccc(F)cc2)S(=O)(=O)N=C1N1CCCN(C(=O)Nc2ccccc2)CC1` came in with an RP-LC retention time of 806 s.
For the compound `COc1ccc(OC)c(NC(=O)c2noc3c2CCCC3)c1`, the RP-LC retention time was 1160 s.
On to `COc1ccc(C(=O)NC2CCN(c3ccc(F)cc3)C2=O)cc1` (centres undefined), for which the RP-LC retention time amounted to 756 s.
On to `O=C(Cn1nc(C(=O)N2CCCC2)c2ccccc21)N1CCN(Cc2ccc3c(c2)OCO3)CC1`, for which the RP-LC retention time was 622 s.
With `CC(NC(=O)c1ccco1)c1nc2ccccc2n1CC(=O)N1CCCC1` (centres undefined), the RP-LC retention time was determined as 614 s.
With `COc1ccc(-c2nc(NC(=O)c3cccnc3)sc2C)cc1`, the RP-LC retention time came to 800 s.
`Cn1ncc2c3ccccc3n(CCCC(=O)NCCN3CCCCC3)c2c1=O` yielded an RP-LC retention time of 618 s.
Under `COc1ccc(C2CC(=O)N(c3ccc(C)c(F)c3)C(=O)C2)cc1OC` stands 867 s; under `O=C(NCCN1CCOCC1)c1cc2n(n1)CCCN(Cc1ccc(F)cc1)C2=O`, 606 s.
`CC(C)CN1C(=O)c2cccn2CC1CNC(=O)CC1CCCC1` (centres undefined) came in with an RP-LC retention time of 784 s.
Compound `CC(C)c1noc(-c2cccnc2N2CCCN(Cc3c(F)cccc3Cl)CC2)n1` showed an RP-LC retention time of 721 s.
Take `COc1ccc(-c2nnc(SCc3cc(=O)n4c(C)csc4n3)o2)cc1OC`: the RP-LC retention time was found to be 762 s.
Consider `Cc1ccccc1-c1nc2cnccn2c1NCCC(=O)NC(C)c1cccs1` (centres undefined), for which the RP-LC retention time turned out to be 659 s.
`Cc1ccc(-c2cn3cc(C(=O)N4CCCN(C)CC4)ccc3n2)cc1C` had an RP-LC retention time of 583 s.
Turning to `O=C(Nc1ccc(N2CCOCC2)cc1)c1cc2ccccc2o1`, the RP-LC retention time turned out to be 757 s.
On to `O=C(CN1CCN(C(=O)c2ccco2)CC1)Nc1cc(Cl)ccc1Cl`, for which the RP-LC retention time worked out at 704 s.
`O=C(CC1CCN(C(=O)c2cc3cc(Cl)ccc3[nH]2)CC1)NCc1ccco1`: the RP-LC retention time stood at 802 s.
Compound `Cc1ccc(N2CC(c3nc(-c4ccc5c(c4)nnn5C4CCCC4)no3)CC2=O)cc1` (centres undefined) came in with an RP-LC retention time of 1070 s.
In the case of `Cc1ccc(C2NC(=O)c3ccccc3N2)s1` (centres undefined), the RP-LC retention time was 705 s.
For the compound `CC(CCNC(=O)c1nnc(-c2ccc(S(=O)(=O)N3CCCC3)cc2)o1)N1CCCCCC1` (centres undefined), the RP-LC retention time worked out at 644 s.
In the case of `COC(=O)c1cccc(Nc2c(-c3ccc(N4CCOCC4)cc3)nc3cnccn23)c1`, the RP-LC retention time came to 754 s.
`Cc1ccc(NC(=O)NCCC2CCN(S(=O)(=O)c3ccc(F)cc3)CC2)cc1` came in with an RP-LC retention time of 925 s.
Turning to `Cc1cc(N2CCC(C)CC2)n2nc(CN3CCN(c4ccccn4)CC3)nc2n1`, the RP-LC retention time stood at 599 s.
The compound `CCOc1ccc(C(=O)N2CCN(c3cnn4c(C5CC5)nnc4c3)CC2)cc1` came in with an RP-LC retention time of 659 s.
In turn, `CCOc1ccccc1CNC(=O)c1c(C)sc2ccn(C)c(=O)c12` displayed an RP-LC retention time of 823 s.
The compound `Cc1cc(OCC(=O)NCc2ccc(Cl)cc2)nc(N2CCN(c3ccccc3)CC2)n1` yielded an RP-LC retention time of 868 s.
Under `CCCn1c(CN2CCOCC2)nc2cc(NC(=O)CC(C)C)ccc21` stands 633 s; under `CCc1cccc(NC(=O)c2cc(C)n3nccc3n2)c1`, 1030 s.
In turn, `O=C(Cn1c(=O)c2cccn2c2ccc(F)cc21)NC1CCCC1` displayed an RP-LC retention time of 800 s.
The compound `Cc1cccc(N2CCN(C(=O)C3CC(=O)N(c4cccc(NC(=O)C(C)C)c4)C3)CC2)c1` (centres undefined) displayed an RP-LC retention time of 803 s.
For `COCCN(Cc1ccc(Cl)cc1)Cc1cc(=O)n2ccc(C)cc2n1`, the RP-LC retention time came to 657 s.
Regarding `O=C(CCn1cnc2cc(-c3noc(-c4cncc(Br)c4)n3)ccc21)N1CCCCC1`, the RP-LC retention time was 782 s.
As to `CC1CCC(NC(=O)C2CCN(C(=O)c3ncn4c3COC(c3ccc(Cl)cc3)C4)CC2)CC1` (centres undefined), the RP-LC retention time was 880 s.
Take `O=C(O[C@@H]1CN2CCC1CC2)N1CCc2ccccc2C1c1ccccc1` (some centres undefined): the RP-LC retention time amounted to 757 s.
For the compound `CC1CCCN(c2ccc(-c3csc(S(=O)(=O)N4CCCCC4)c3)nn2)C1` (centres undefined), the RP-LC retention time was 817 s.
Turning to `CCSc1nnc(NC(=O)CN(C)c2nc3c(Cl)cccc3s2)s1`, the RP-LC retention time came out at 904 s.
In the case of `COc1ccc(Cc2nc(-c3ccc4c(c3)nc(C)c(=O)n4C)no2)cc1`, the RP-LC retention time came to 927 s.
On to `Cc1c(Cl)cccc1S(=O)(=O)N1CCC(C(=O)NCc2csc(-c3cccs3)n2)CC1`, for which the RP-LC retention time amounted to 1020 s.
As for `Cc1ccc(C(=O)N2CCCC2COc2ccc(C(=O)NC(C)C)cc2)cc1F` (centres undefined), the figure is 889 s; as for `CCOc1cccc(CNC(=O)c2cnc(-c3ccccc3)nc2-c2ccncc2)c1`, 855 s.
For `Cc1ccc(-c2nnc(-c3nc(NCCc4ccco4)c4ccccc4n3)o2)cc1`, the RP-LC retention time worked out at 1030 s.
In turn, `O=c1cc(-c2ccccc2)oc2c(O)c(O)ccc12` showed an RP-LC retention time of 720 s.
`Cc1cc(OCC(=O)Nc2cccc(Br)c2)nc(N2CCCC2)n1` registered an RP-LC retention time of 682 s.
As for `CCc1ccc(NC(=O)Cn2c(=O)n(-c3ccc(C)cc3)c(=O)c3c2cc(C)n3C)cc1`, the figure is 956 s.
As for `Cn1c(=O)n(C)c2cc(S(=O)(=O)c3ccc(F)cc3)c(NC(=O)c3ccccc3F)cc21`, the figure is 882 s; as for `CC(C)C1c2nccn2CCCN1C(=O)Cn1c(=O)oc2ccccc21` (centres undefined), 603 s.
As for `Cc1ccc(S(=O)(=O)N2CCc3c(c(-c4nnc(-c5ccc(F)cc5)o4)nn3C)C2)cc1C`, the RP-LC retention time amounted to 851 s.
In turn, `CCn1c(C(=O)NCc2ccccc2OC)cc2sc(Cl)cc21` returned an RP-LC retention time of 1130 s.
Under `O=S(=O)(c1cccc(C(F)(F)F)c1)N1CCc2nc(-c3ccccc3)ncc2C1` stands 1140 s; under `CN(C)C(=O)/N=N/C(=O)N(C)C`, 597 s.
As for `CCOC(=O)CNC(=O)N1CCCC1c1ccc(Cl)cc1` (centres undefined), the figure is 795 s.
